From patent US20100184770A1, “COMPOUNDS” (Glaxo Group Limited, priority 2006, published 2010)

What was measured:
[1] = tested on: histamine-induced congestion; test: Intranasal challenge method: whole body plethysmography; type: in vivo, guinea pigs; details: for inhibition of the response to histamine challenge (PenH AUC): dosed intranasally at 1 mg/ml either 1 hr or 24 hr before histamine challenge
Description: Female Dunkin-Hartley guinea pigs 150-250 g are sensitised twice daily for 5 days (week 1) with ovalbumin (OVA) and aluminium hydroxide (Al(OH)3 or Alum) in physiological saline, 25 μl/nostril. Solution is made up at 20 μg/ml OVA, 180 mg/ml Alum. During weeks 2 and 3 animals receive 25 μl/nostril of OVA (5 mg/ml) once daily. During Week 4 guinea pigs will be entered into study but are continually sensitized as per weeks 2 and 3 until the day before dosing with compound or vehicle.
Pretreatment with test compound is performed at various times prior to histamine challenge. Efficacy dose-response curves are determined 1 hr and/or 3 hr after dosing whereas duration of action may be studied up to 7 days post dose. Test compounds are formulated as solutions in 0.9% sterile saline or suspensions in 0.9% sterile saline/tween80.
Guinea pigs were anaesthetised with isoflurane (5%, 2-31/min O2), placed in a supine position, and 25 μl of test compound or vehicle dosed into each nostril using a Gilson pipette. After dosing, animals remain supine for at least 30 seconds during recovery from anaesthesia.
At 30 minutes before the time of histamine challenge, guinea pigs are dosed with atropine sulphate (Sigma A0257, dissolved in saline), 1 mg/kg i.p. Animals are then placed into whole body plethysmograph systems (Buxco® Electronics) where the parameter PenH area under curve (AUC) is recorded as outlined in […], E., SCHWARZE, J., TAKEDA, K., OSHIBA, A., LARSEN, L., IRVIN, C. G. & GELFAND, E. W. (1997) Noninvasive measurement of airway responsiveness in allergic mice using barometric plethysmography. Am. J. Respir. Crit. Care Med. 156, 766-775.
Hamelmann et al. A 10 minute baseline AUC is recorded and if this value is over 1000, the animals are excluded.
After the stipulated pre-dose time has been reached, guinea pigs are re-anaesthetised with isoflurane and dosed with either 10 mM or 15 mM histamine or phosphate-buffered saline (PBS), (25 μl per nostril). On recovery from anaesthesia animals are returned to the individual plethysmograph chambers and 4×10 min consecutive PenH AUC recordings are made. These recordings are summed to give a cumulative AUC over 40 mins post histamine challenge for each animal. Data are analysed using ANOVA with post-hoc Fishers LSD test (general linear models, Statistica®) and finally Hochberg adjustment. Inhibition of histamine-induced congestion is determined by statistically significant differences between the mean responses of compound pre-treated groups compared to the vehicle pre-treated, histamine-challenged group.

human H1 receptor [2] = target: T1, human H1 receptor (Homo sapiens, UniProt P35367); test: Histamine H1 functional antagonist assay: determination of antagonist duration (washout, FLIPR); type: cell-based; details: at one or more time points after washout
T1 construct: expressed in transfected cells
Description: (§1) 1. Generation of Histamine H1 Cell Line The human H1 receptor is cloned using known procedures described in the literature [Biochem. Biophys. Res. Commun., 201(2):894 (1994)]. Chinese hamster ovary (CHO) cells stably expressing the human H1 receptor are generated according to known procedures described in the literature [Br. J. Pharmacol., 117(6):1071 (1996)].
To determine the antagonist duration, cells are cultured overnight in non-coated black-walled clear bottom 96-well tissue culture plates, are washed with PBS and are incubated with a concentration of antagonist chosen to give an approximate DR in the range 30-300. Following the 30 min antagonist incubation period, the cells are washed two or three times with 200 μl of PBS and then 100 μl Tyrodes buffer is added to each well to initiate antagonist dissociation. Following incubation for predetermined times, typically 30-270 min at 37° C., the cells are then washed again with 200 μl PBS and are incubated with 100 Tyrodes buffer containing Brilliant Black, probenecid and Fluo-4 for 45 min at 37° C., as described above. After this period, the cells are challenged with histamine in the FLIPR™ as described above. The dose ratio at each time point is used to determine the fractional H1 receptor occupancy by the following equation: fractional receptor occupancy=(DR-1)/DR. The decrease in receptor occupancy over time approximates to a straight line and is analysed by linear regression. The slope of this straight line fit is used as an index of the dissociation rate of the antagonist. The dose ratios for antagonist treated cells and for antagonist treated and washed cells at each time point are used to calculate a relative dose ratio (rel DR) which is also used as an index of antagonist duration. Antagonists with long duration of action produce rel DR values close to 1, and antagonists with short duration of action produce rel DR values that approaches the dose ratio value obtained for antagonist treatment alone.

human H1 receptor [3] = target: T1, human H1 receptor; test: Histamine H1 functional antagonist assay: determination of functional pKi values (FLIPR); type: cell-based; details: CHO cells expressing human H1 receptor, histamine at EC80, FLIPR, read-out: average pKi (pKb) at H1 (converted)
Description: as §1
The histamine H1 cell line is seeded into non-coated black-walled clear bottom 384-well tissue culture plates in alpha minimum essential medium (Gibco/Invitrogen, cat no. 22561-021), supplemented with 10% dialysed foetal calf serum (Gibco/Invitrogen cat no. 12480-021) and 2 mM L-glutamine (Gibco/Invitrogen cat no 25030-024) and is maintained overnight at 5% CO2, 37° C.
Excess medium is removed from each well to leave 10 μl. 30 μl loading dye (250 μM Brilliant Black, 2 μM Fluo-4 diluted in Tyrodes buffer+probenecid (145 mM NaCl, 2.5 mM KCl, 10 mM HEPES, 10 mM D-glucose, 1.2 mM MgCl2, 1.5 mM CaCl2, 2.5 mM probenecid, pH adjusted to 7.40 with NaOH 1.0 M)) is added to each well and the plates are incubated for 60 min at 5% CO2, 37° C.
10 μl of test compound, diluted to the required concentration in Tyrodes buffer+probenecid (or 10 μl Tyrodes buffer+probenecid as a control) is added to each well and the plate is incubated for 30 min at 37° C., 5% CO2. The plates are then placed into a FLIPR™ (Molecular. Devices, UK) to monitor cell fluorescence (λex=488 nm, λEM=540 nm) in the manner described in Sullivan et al., (In: Lambert DG (ed.), Calcium Signaling Protocols, New Jersey: Humana Press, 1999, 125-136) before and after the addition of […] at a concentration that results in the final assay concentration of histamine being EC80.
Functional antagonism is indicated by a suppression of histamine induced increase in fluorescence, as measured by the FLIPR™ system (Molecular Devices). By means of concentration effect curves, functional affinities are determined using standard pharmacological mathematical analysis.

T1 sequence (P35367 whole entry): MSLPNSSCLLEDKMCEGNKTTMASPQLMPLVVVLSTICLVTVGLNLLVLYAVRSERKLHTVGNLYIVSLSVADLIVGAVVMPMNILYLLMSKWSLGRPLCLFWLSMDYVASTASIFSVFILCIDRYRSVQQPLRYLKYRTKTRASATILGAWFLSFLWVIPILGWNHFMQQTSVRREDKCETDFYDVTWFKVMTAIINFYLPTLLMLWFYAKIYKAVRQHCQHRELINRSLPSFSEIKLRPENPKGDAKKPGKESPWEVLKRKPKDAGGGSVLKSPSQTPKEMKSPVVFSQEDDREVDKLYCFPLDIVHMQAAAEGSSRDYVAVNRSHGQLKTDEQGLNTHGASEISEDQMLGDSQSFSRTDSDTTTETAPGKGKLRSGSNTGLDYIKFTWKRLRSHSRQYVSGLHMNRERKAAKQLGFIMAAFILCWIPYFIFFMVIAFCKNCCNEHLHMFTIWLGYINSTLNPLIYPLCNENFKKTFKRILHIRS

Row | Structure (SMILES) | inhibition of the response to histamine challenge (PenH AUC), 3 hr timepoint ([1]; another experiment, dosed intranasally at 1 mg/ml and at 10 mg/ml 3 hr before histamine challenge) | inhibition of the response to histamine challenge (PenH AUC), 24 hr timepoint ([1]; another experiment, dosed intranasally at 1 mg/ml and at 10 mg/ml 24 hr before histamine challenge) | inhibition of the response to histamine challenge (PenH AUC) [1] | duration of action compared with azelastine in the histamine H1 functional antagonist assay (human H1 receptor [2]) | Ki (human H1 receptor [3])
1 | COCCCC(=O)NCCN1CCC[C@@H]1Cn1nc(Cc2ccc(Cl)cc2)c2ccccc2c1=O [Example 34, N-[2-((2R)-2-{[4-[(4-Chlorophenyl)methyl]-1-oxo-2(1H)-phthalazinyl]methyl}-1-pyrrolidinyl)ethyl]-4-(methyloxy)butanamide] | significantly (p<0.05) inhibited the response at the 3 hr timepoint | not the 24 hr timepoint | significantly (p<0.05) inhibited the response at both timepoints |  | 
2 | COCCCC(=O)NCCN1CCC[C@@H]1Cn1nc(Cc2ccc(Cl)cc2)c2ccccc2c1=O.Cl [Example 34a, N-[2-((2R)-2-{[4-[(4-Chlorophenyl)methyl]-1-oxo-2(1H)-phthalazinyl]methyl}-1-pyrrolidinyl)ethyl]-4-(methyloxy)butanamide, hydrochloride salt] |  |  | significantly (p<0.05) inhibited the response at both timepoints |  | 
3 | COCCCC(=O)NCCN1CCC[C@@H]1Cn1nc(Cc2ccc(Cl)cc2)c2ccccc2c1=O.O=C(O)C(F)(F)F [Example 34c, N-[2-((2R)-2-{[4-[(4-Chlorophenyl)methyl]-1-oxo-2(1H)-phthalazinyl]methyl}-1-pyrrolidinyl)ethyl]-4-(methyloxy)butanamide, trifluoroacetate salt] |  |  | significantly (p<0.05) inhibited the response at both timepoints |  | 
4 | O=C(CC(F)(F)F)NCCN1CCC[C@@H]1Cn1nc(Cc2ccc(Cl)cc2)c2ccccc2c1=O.O=C(O)C(F)(F)F [Example 36b, N-[2-((2R)-2-{[4-[(4-chlorophenyl)methyl]-1-oxo-2(1H)-phthalazinyl]methyl}-1-pyrrolidinyl)ethyl]-3,3,3-trifluoropropanamide, trifluoroacetate] |  |  | significantly (p<0.05) inhibited the response at both timepoints | longer duration of action than azelastine | < 31.6 nM
5 | CN1CCCC(n2nc(Cc3ccc(Cl)cc3)c3ccccc3c2=O)CC1 (stereo not drawn) [azelastine, reference compound] |  |  | failed to show a similar duration of action |  | 
